According to the NIST ThermoML archive (doi:10.1016/j.fluid.2017.09.014):
± gives the expanded uncertainty stated by the source.

Assay: xn = mol fraction of the nth substance listed
Conditions: Vibrating tube method, x2 = 0.9503

O=S=O [sulfur dioxide] + O=C=O
Conditions | mass density [kg/m3]
272.65 K, 226 kPa, Gas | 4.8 ± 0.2
272.65 K, 407 kPa, Gas | 8.5 ± 0.2
272.65 K, 503 kPa, Gas | 10.6 ± 0.2
272.65 K, 752 kPa, Gas | 16.2 ± 0.2
272.65 K, 1013 kPa, Gas | 22.1 ± 0.2
272.65 K, 1252 kPa, Gas | 27.9 ± 0.2
272.65 K, 1506 kPa, Gas | 34.4 ± 0.2
272.65 K, 1752 kPa, Gas | 40.9 ± 0.4
272.65 K, 1998 kPa, Gas | 47.9 ± 0.4
273.54 K, 25506 kPa, Liquid | 1065.1 ± 0.4
273.54 K, 26999 kPa, Liquid | 1069.9 ± 0.4
273.54 K, 29024 kPa, Liquid | 1076.3 ± 0.4
273.54 K, 29514 kPa, Liquid | 1077.7 ± 0.4
273.54 K, 30524 kPa, Liquid | 1080.9 ± 0.4
273.54 K, 31975 kPa, Liquid | 1085.1 ± 0.5
273.54 K, 32491 kPa, Liquid | 1086.7 ± 0.6
273.54 K, 33027 kPa, Liquid | 1088.3 ± 0.5
273.54 K, 33521 kPa, Liquid | 1089.7 ± 0.5
273.54 K, 34032 kPa, Liquid | 1091.1 ± 0.5
273.54 K, 34491 kPa, Liquid | 1092.3 ± 0.5
273.54 K, 35043 kPa, Liquid | 1093.9 ± 0.6
273.54 K, 35534 kPa, Liquid | 1095.1 ± 0.5
273.54 K, 36045 kPa, Liquid | 1096.7 ± 0.5
273.54 K, 36490 kPa, Liquid | 1097.6 ± 0.5
273.54 K, 37047 kPa, Liquid | 1099 ± 0.5
273.54 K, 37529 kPa, Liquid | 1100.5 ± 0.5
273.54 K, 38033 kPa, Liquid | 1101.8 ± 0.5
273.54 K, 38558 kPa, Liquid | 1103.1 ± 0.5
273.54 K, 41723 kPa, Liquid | 1110.7 ± 0.5
273.55 K, 20535 kPa, Liquid | 1047.9 ± 0.4
273.55 K, 24032 kPa, Liquid | 1060.4 ± 0.6
273.55 K, 24523 kPa, Liquid | 1061.9 ± 0.4
273.55 K, 25039 kPa, Liquid | 1063.6 ± 0.6
273.55 K, 26016 kPa, Liquid | 1066.9 ± 0.6
273.55 K, 26484 kPa, Liquid | 1068.3 ± 0.4
273.55 K, 27554 kPa, Liquid | 1071.7 ± 0.4
273.55 K, 28041 kPa, Liquid | 1073 ± 0.6
273.55 K, 28539 kPa, Liquid | 1074.9 ± 0.4
273.55 K, 30026 kPa, Liquid | 1079.4 ± 0.6
273.55 K, 30952 kPa, Liquid | 1082.2 ± 0.4
273.55 K, 31482 kPa, Liquid | 1083.6 ± 0.5
273.55 K, 38992 kPa, Liquid | 1104 ± 0.5
273.55 K, 39553 kPa, Liquid | 1105.7 ± 0.5
273.55 K, 40023 kPa, Liquid | 1106.6 ± 0.3
273.55 K, 40508 kPa, Liquid | 1107.8 ± 0.5
273.55 K, 41016 kPa, Liquid | 1109 ± 0.5
273.56 K, 12509 kPa, Liquid | 1014.7 ± 0.6
273.56 K, 13012 kPa, Liquid | 1017.2 ± 0.6
273.56 K, 13506 kPa, Liquid | 1019.3 ± 0.6
273.56 K, 17514 kPa, Liquid | 1036.2 ± 0.6
273.56 K, 18049 kPa, Liquid | 1038.2 ± 0.6
273.56 K, 18515 kPa, Liquid | 1040.1 ± 0.6
273.56 K, 19000 kPa, Liquid | 1042.1 ± 0.6
273.56 K, 19509 kPa, Liquid | 1044 ± 0.4
273.56 K, 20028 kPa, Liquid | 1046 ± 0.6
273.56 K, 21029 kPa, Liquid | 1049.7 ± 0.6
273.56 K, 21519 kPa, Liquid | 1051.3 ± 0.6
273.56 K, 21993 kPa, Liquid | 1053 ± 0.6
273.56 K, 22501 kPa, Liquid | 1054.9 ± 0.4
273.56 K, 23496 kPa, Liquid | 1058.4 ± 0.6
273.56 K, 41601 kPa, Liquid | 1110.4 ± 0.5
273.57 K, 9944 kPa, Liquid | 1001.9 ± 0.6
273.57 K, 10516 kPa, Liquid | 1004.5 ± 0.8
273.57 K, 11003 kPa, Liquid | 1007 ± 0.6
273.57 K, 11502 kPa, Liquid | 1009.5 ± 0.6
273.57 K, 12005 kPa, Liquid | 1012.2 ± 0.6
273.57 K, 14518 kPa, Liquid | 1023.6 ± 0.6
273.57 K, 14951 kPa, Liquid | 1025.4 ± 0.6
273.57 K, 15999 kPa, Liquid | 1029.8 ± 0.6
273.57 K, 16500 kPa, Liquid | 1031.9 ± 0.6
273.57 K, 17024 kPa, Liquid | 1034.2 ± 0.6
273.57 K, 23015 kPa, Liquid | 1056.6 ± 0.6
273.58 K, 8503 kPa, Liquid | 993.8 ± 0.8
273.58 K, 9008 kPa, Liquid | 996.7 ± 0.8
273.58 K, 9518 kPa, Liquid | 999.7 ± 0.8
273.58 K, 15602 kPa, Liquid | 1028.1 ± 0.6
273.6 K, 4001 kPa, Liquid | 964.9 ± 1
273.6 K, 5521 kPa, Liquid | 975.5 ± 0.8
273.6 K, 6005 kPa, Liquid | 978.7 ± 0.8
273.6 K, 6503 kPa, Liquid | 981.9 ± 0.8
273.6 K, 7034 kPa, Liquid | 984.6 ± 0.8
273.6 K, 7688 kPa, Liquid | 987.5 ± 0.8
273.6 K, 8003 kPa, Liquid | 990.6 ± 0.8
273.61 K, 4518 kPa, Liquid | 968.2 ± 0.8
273.61 K, 5013 kPa, Liquid | 972.1 ± 0.8
282.65 K, 800 kPa, Gas | 16.5 ± 0.2
282.65 K, 1249 kPa, Gas | 26.3 ± 0.2
282.66 K, 120 kPa, Gas | 2.5 ± 0.2
282.66 K, 211 kPa, Gas | 4.3 ± 0.2
282.66 K, 301 kPa, Gas | 6.1 ± 0.2
282.66 K, 408 kPa, Gas | 8.5 ± 0.2
282.66 K, 511 kPa, Gas | 10.6 ± 0.2
282.66 K, 608 kPa, Gas | 12.3 ± 0.2
282.66 K, 1009 kPa, Gas | 21.1 ± 0.2
282.66 K, 1509 kPa, Gas | 32.8 ± 0.2
282.66 K, 1705 kPa, Gas | 37.5 ± 0.2
282.66 K, 1909 kPa, Gas | 42.7 ± 0.2
282.66 K, 2010 kPa, Gas | 45.2 ± 0.2
282.66 K, 2199 kPa, Gas | 50.5 ± 0.4
282.66 K, 2508 kPa, Gas | 59.6 ± 0.4
282.66 K, 2702 kPa, Gas | 65.5 ± 0.4
282.66 K, 3008 kPa, Gas | 76 ± 0.4
283.31 K, 27537 kPa, Liquid | 1038.9 ± 0.4
283.31 K, 34500 kPa, Liquid | 1062.8 ± 0.4
283.31 K, 35516 kPa, Liquid | 1065.8 ± 0.4
283.31 K, 36037 kPa, Liquid | 1067.5 ± 0.4
283.31 K, 36515 kPa, Liquid | 1068.6 ± 0.4
283.31 K, 37578 kPa, Liquid | 1072.1 ± 0.4
283.31 K, 38061 kPa, Liquid | 1073.3 ± 0.4
283.32 K, 5005 kPa, Liquid | 910.4 ± 1.2
